# Counter-ions that a name gives are not always drawn.
# What was measured:
# [1] = system: endothelial cells (HUVEC); assay: endothelial migration and chemotaxis assays; assay type: cell-based, human; conditions: cancer cell-free system
# Method: Serum-starved HUVEC's were pulsed with Cell Tracker Red CMTPX dye for 45 minutes and seeded into HTS Fluoroblock trans-well inserts at a concentration of 1×10^5 HUVEC's in 0.5 mL starvation media per each insert. The assay was allowed to proceed for 16-18 hours at 37° C., and the inserts were processed and analyzed as described above (See Matrigel Invasion Assay).
# HUVEC's were serum-starved in 0.2% FBS EGM-2 media for 16 hours and labeled with Cell Tracker Red CMTPX dye for 45 minutes. Meanwhile, the indicated amounts (1-5 μg) of recombinant human ApoE3 or BSA were mixed with 250 μL of matrigel (356231, BD Biosciences) and allowed to solidify at the bottom of a 24-well plate for 30 min. 250 μL of HUVEC EGM-2 media containing 0.2% FBS was then added to each matrigel-coated well, and […] HTS Fluoroblock inserts were fitted into each well. 1×10^5 HUVEC's, resuspended in 0.5 mL of starvation media, were seeded into each insert and allowed to migrate along the matrigel gradient for 16-18 hours at 37° C. Upon completion of the assay, the inserts were mounted on slides and analyzed as described above (See Matrigel Invasion Assay).
# [2] = system: MeWo-LM2 cells or endothelial cells; assay: serum starvation assay; assay type: cell-based, human; conditions: 100 μM, 0.2% FBS
# Method: The number of viable cells was counter after 8, 16, and 24 hours.
# [3] = system: DNAJA4 expression in MeWo cells; assay: DNAJA4 mRNA expression by qRT-PCR in melanoma cells; assay type: cell-based, human; conditions: parental MeWo cells, 48 hours
# Method: Total RNA was extracted from various cell lines using the miRvana kit (AM1560, Applied Biosystems, Austin, Tex.). The expression levels of mature miRNAs were quantified using the Taqman miRNA expression assay (4427975-0002228, Applied Biosystems). RNU44 was used as an endogenous control for normalization. For mRNA expression analyses, 600 ng of total RNA was reverse transcribed using the cDNA First-Strand Synthesis Kit (18080-051, Invitrogen), and roughly 200 ng of the resulting cDNA was then mixed with SYBR green PCR Master Mix (4309155, Applied Biosystems) and the appropriate primers. Each reaction was performed in quadruplicate, and mRNA expression was quantified by performing real-time PCR amplification using an ABI Prism 7900HT Real-Time PCR System (Applied Biosystems). GAPDH was used as an endogenous control for normalization. The following primers were used: […]
# [4] = system: MeWo, SK-Mel-2, SK-Mel-334.2, SK-Mel-239 human melanoma cells; assay: subcutaneous human melanoma tumor growth in immunocompromised mice; assay type: in vivo, mouse
# [5] = system: MeWo melanoma cells; assay: orthotopic metastasis assay after tumor excision; assay type: in vivo, mouse; conditions: oral, chow 100 mg/kg for 1 month
# Method: To determine the effect of GW3965 treatment on lung colonization by melanoma cells dissociated from an orthotopic site, 1×10^6 MeWo cells expressing a luciferase reporter were subcutaneously injected into both lower flanks of NOD Scid mice. Upon the formation of tumors measuring ˜300 mm^3 in volume, the tumors were excised and the mice were randomly assigned to a control diet or a GW3965-supplemented diet (100 mg/kg) treatment. One month after tumor excision, the lungs were extracted and lung colonization was measured by ex vivo bioluminescence imaging. To histologically confirm the extent of melanoma lung colonization, lungs were then fixed in 4% PFA overnight, paraffin-embedded, section into […] increments and stained for human vimentin (VP-V684, Vector Laboratories).
# [6] = system: B-RafV600E/+; Pten−/−; CDKN2A−/− primary mouse melanoma cells; assay: B-RafV600E/+; Pten−/−; CDKN2A−/− melanoma cells in syngeneic mice; assay type: in vivo
# Method: Melanoma cells used for in vivo metastasis assays were transduced with a stably expressed retroviral construct encoding a luciferase reporter gene (Ponomarev et al., 2004), allowing us to monitor the in vivo progression of melanoma cells by bioluminescence imaging. The following numbers of melanoma cells, resuspended in 100 μL of PBS, were injected intravenously via the tail-vein: 4×10^4 MeWo cells, 2.5×10^5 HT-144 cells, 2×10^5 SK-Mel-334.2 cells, 5×10^4B 16F10 cells, and 1×10^5YUMM cells. The MeWo, HT-144, and SK-Mel-334.2 cells were injected into 6-8 week-old sex-matched NOD scid mice, while the B16F10 and YUMM cells were injected into 6-8 week-old sex-matched C57BL/6 mice. […] To assess the effect of GW3965 treatment on brain metastasis, 1×10^5 MeWo brain-metastatic derivatives were injected intracardially into athymic nude mice. Immediately following injection, mice were randomly assigned to a control diet or GW3965-supplemented diet (100 mg/kg). To determine whether oral delivery of GW3965 can inhibit the progression of incipient metastasis, NOD Scid mice were intravenously injected with 4×10^4MeWo cells and the cells were allowed to colonize the lungs for 42 days, after which mice were blindedly assigned to a control diet or a GW3965-supplemented diet (100 mg/kg) treatment.
# [7] = system: MDA-468 human breast cancer cells; assay: MDA-468 breast cancer tumor growth in mammary fat pads; assay type: in vivo, mouse; conditions: diet 75 mg/kg/day
# Method: The mice were assigned to a control diet treatment or a GW3965-supplemented diet treatment (75 mg/kg/day) two days prior to injection of the cancer cells.
Compound,endothelial migration in trans-well and gradient-based chemotactic assay [1],survival in serum starvation conditions [2],expression of DNAJA4 [3],"overall survival time of tumor-bearing mice ([4]; B16F10, MeWo, SK-Mel-334.2 tumors, chow 100 mg/kg)",suppression of growth of SK-Mel-239 vemurafenib-resistant line ([4]; diet 100 mg/kg),survival of mice bearing vemurafenib-resistant melanoma burden ([4]; diet 100 mg/kg),"tumor growth inhibition, MeWo ([4]; oral administration)","tumor growth inhibition, SK-Mel-2 ([4]; oral administration)","tumor growth inhibition, SK-Mel-334.2 ([4]; oral administration)","growth of in vivo-derived DTIC-resistant MeWo tumors ([4]; oral, diet 100 mg/kg)",inhibition of lung colonization by disseminated melanoma cells post-tumor excision [5],tumor growth ([6]; chow 100 mg/kg),lung metastasis ([6]; diet 100 mg/kg),overall survival ([6]; diet 100 mg/kg),breast cancer tumor size in vivo [7]
"recombinant ApoE3: recombinant human ApoE3 (4696, BioVision)",sufficient to inhibit,did not affect,,,,,,,,,,,,,
"O=C(O)Cc1cccc(OCCCN(Cc2cccc(C(F)(F)F)c2Cl)CC(c2ccccc2)c2ccccc2)c1 [GW3965 2, 3-[3-[N-(2-Chloro-3-trifluoromethylbenzyl)-(2,2-diphenylethyl)amino]propyloxy] phenylacetic acid hydrochloride]",,,increased expression,substantially prolonged,72%,significantly prolonged,70%,49%,73%,strongly inhibited,17 fold,robustly inhibited,robustly inhibited,extended,significant reduction
